Experimental data: US9918956B2 (SICHUAN JIUZHANG BIOLOGICAL SCIENCE AND TECHNOLOGY CO., LTD, priority 2013, dated 2018)

Key:
[1] = adjuvant compatibility, high temperature (60° C.) test; format: physicochemical
[2] = stability of crude drugs; format: physicochemical; details: light and heat
[3] = adjuvant compatibility, bright light exposure test; format: physicochemical; details: light 4500 lx ± 500 lx
Excerpt: Samples were taken and examined on 0, 5th, 10th days, respectively, and results were depicted in Table 7.

[4] = pH of chlorogenic acid solutions
[5] = pH-degradation reaction rate of chlorogenic acid in buffer solutions
[6] = hygroscopicity of chlorogenic acid crude drug; format: physicochemical
[7] = adjuvant compatibility, high humidity (92.5% relative humidity) test; format: physicochemical; details: 25° C.
[8] = from pH-degradation reaction rate curve

O=C(/C=C/c1ccc(O)c(O)c1)O[C@@H]1C[C@](O)(C(=O)O)C[C@@H](O)[C@H]1O [chlorogenic acid]
Content ([1]; day 0): 99.51% | Description ([1]; day 0): Off-white | Loss on drying ([1]; day 0): 2.31% | Related substances Others 2 ([1]; day 0): 0.154% | Related substances Others 3 ([1]; day 0): 0.211% | Related substances Others 4 ([1]; day 0): 0.035% | Related substances Others Total ([1]; day 0): 0.504% | Content ([1]; day 5): 99.36% | Description ([1]; day 5): Dark brown | Loss on drying ([1]; day 5): 2.25% | Related substances Others 2 ([1]; day 5): 0.160% | Related substances Others 3 ([1]; day 5): 0.294% | Related substances Others 4 ([1]; day 5): 0.039% | Related substances Others Total ([1]; day 5): 0.627% | Content ([1]; day 10): 99.31% | Description ([1]; day 10): Dark brown | Loss on drying ([1]; day 10): 2.13% | Related substances Others 1 ([1]; day 10): 0.143% | Related substances Others 2 ([1]; day 10): 0.175% | Related substances Others 3 ([1]; day 10): 0.306% | Related substances Others 4 ([1]; day 10): 0.047% | Related substances Others Total ([1]; day 10): 0.670% | stability of crude drug [2]: sensitive to light and heat | Content ([3]; day 0): 99.51% | Description ([3]; day 0): Off white | Loss on drying ([3]; day 0): 2.31% | Related substances Others 2 ([3]; day 0): 0.154% | Related substances Others 3 ([3]; day 0): 0.211% | Related substances Others 4 ([3]; day 0): 0.035% | Related substances Others Total ([3]; day 0): 0.504% | Content ([3]; day 5): 99.15% | Description ([3]; day 5): Dark brown | Loss on drying ([3]; day 5): 2.38% | Related substances Others 2 ([3]; day 5): 0.483% | Related substances Others 3 ([3]; day 5): 0.223% | Related substances Others 4 ([3]; day 5): 0.037% | Related substances Others Total ([3]; day 5): 0.871% | Content ([3]; day 10): 99.07% | Description ([3]; day 10): Dark brown | Loss on drying ([3]; day 10): 2.54% | Related substances Others 2 ([3]; day 10): 0.498% | Related substances Others 4 ([3]; day 10): 0.044% | pH value of solution ([4]; […] solution before freeze-drying): about 3.0 | pH value of solution ([4]; concentration 0.03%): about 3.5 | Concentration of chlorogenic acid ([5]; buffer pH 1.5, 0 h): 108.07 µg/mL | Concentration of chlorogenic acid ([5]; buffer pH 1.5, 3 h): 97.95 µg/mL | Concentration of chlorogenic acid ([5]; buffer pH 1.5, 7 h): 92.20 µg/mL | Concentration of chlorogenic acid ([5]; buffer pH 1.5, 11 h): 78.65 µg/mL | Concentration of chlorogenic acid ([5]; buffer pH 1.5, 17 h): 76.80 µg/mL | Concentration of chlorogenic acid ([5]; buffer pH 1.5, 22 h): 68.79 µg/mL | Concentration of chlorogenic acid ([5]; buffer pH 2.0, 0 h): 108.42 µg/mL | Concentration of chlorogenic acid ([5]; buffer pH 2.0, 3 h): 98.91 µg/mL | Concentration of chlorogenic acid ([5]; buffer pH 2.0, 7 h): 97.79 µg/mL | Concentration of chlorogenic acid ([5]; buffer pH 2.0, 11 h): 99.67 µg/mL | Concentration of chlorogenic acid ([5]; buffer pH 2.0, 17 h): 90.77 µg/mL | Concentration of chlorogenic acid ([5]; buffer pH 2.0, 22 h): 88.26 µg/mL | Concentration of chlorogenic acid ([5]; buffer pH 3.0, 0 h): 107.51 µg/mL | Concentration of chlorogenic acid ([5]; buffer pH 3.0, 3 h): 103.02 µg/mL | Concentration of chlorogenic acid ([5]; buffer pH 3.0, 7 h): 101.91 µg/mL | Concentration of chlorogenic acid ([5]; buffer pH 3.0, 11 h): 102.01 µg/mL | Concentration of chlorogenic acid ([5]; buffer pH 3.0, 17 h): 96.77 µg/mL | Concentration of chlorogenic acid ([5]; buffer pH 3.0, 22 h): 95.18 µg/mL | Concentration of chlorogenic acid ([5]; buffer pH 4.0, 0 h): 106.38 µg/mL | Concentration of chlorogenic acid ([5]; buffer pH 4.0, 7 h): 95.78 µg/mL | Concentration of chlorogenic acid ([5]; buffer pH 4.0, 11 h): 91.29 µg/mL | Concentration of chlorogenic acid ([5]; buffer pH 4.0, 17 h): 85.09 µg/mL | Concentration of chlorogenic acid ([5]; buffer pH 4.0, 22 h): 80.21 µg/mL | Concentration of chlorogenic acid ([5]; buffer pH 5.1, 0 h): 105.96 µg/mL | Concentration of chlorogenic acid ([5]; buffer pH 5.1, 3 h): 97.99 µg/mL | Concentration of chlorogenic acid ([5]; buffer pH 5.1, 7 h): 88.87 µg/mL | Concentration of chlorogenic acid ([5]; buffer pH 5.1, 11 h): 81.70 µg/mL | Concentration of chlorogenic acid ([5]; buffer pH 5.1, 17 h): 66.59 µg/mL | Concentration of chlorogenic acid ([5]; buffer pH 5.1, 22 h): 55.83 µg/mL | Concentration of chlorogenic acid ([5]; buffer pH 6.2, 0 h): 105.67 µg/mL | Concentration of chlorogenic acid ([5]; buffer pH 6.2, 3 h): 67.91 µg/mL | Concentration of chlorogenic acid ([5]; buffer pH 6.2, 7 h): 43.91 µg/mL | Concentration of chlorogenic acid ([5]; buffer pH 6.2, 11 h): 33.46 µg/mL | Concentration of chlorogenic acid ([5]; buffer pH 6.2, 17 h): 22.91 µg/mL | Concentration of chlorogenic acid ([5]; buffer pH 6.2, 22 h): 18.48 µg/mL | pH value of most stable solution [5, 8]: 3 | pH values at which aqueous solutions were more stable [5, 8]: 2-4 | lgk ([5]; pH 1.5): −1.7036 | constants of reaction rate k ([5]; pH 1.5, first order degradation): 0.0198 | lgk ([5]; pH 2.0): −2.0947 | constants of reaction rate k ([5]; pH 2.0, first order degradation): 0.0080 | lgk ([5]; pH 3.0): −2.2931 | constants of reaction rate k ([5]; pH 3.0, first order degradation): 0.0051 | lgk ([5]; pH 4.0): −1.9027 | lgk ([5]; pH 5.1): −1.5412 | constants of reaction rate k ([5]; pH 5.1, first order degradation): 0.0288 | lgk ([5]; pH 6.2): −1.1144 | constants of reaction rate k ([5]; pH 6.2, first order degradation): 0.0768 | hygroscopicity [6]: had hygroscopicity | Content ([7]; day 0): 99.51% | Description ([7]; day 0): Off white | Loss on drying ([7]; day 0): 2.31% | Related substances Others 2 ([7]; day 0): 0.154% | Related substances Others 3 ([7]; day 0): 0.211% | Related substances Others 4 ([7]; day 0): 0.035% | Related substances Others Total ([7]; day 0): 0.504% | Content ([7]; day 5): 99.47% | Description ([7]; day 5): Pale yellow | Loss on drying ([7]; day 5): 4.22% | Related substances Others 2 ([7]; day 5): 0.157% | Related substances Others 3 ([7]; day 5): 0.203% | Related substances Others 4 ([7]; day 5): 0.036% | Related substances Others Total ([7]; day 5): 0.518% | Content ([7]; day 10): 99.43% | Description ([7]; day 10): Pale yellow | Loss on drying ([7]; day 10): 4.75% | Related substances Others 2 ([7]; day 10): 0.174% | Related substances Others 3 ([7]; day 10): 0.221% | Related substances Others 4 ([7]; day 10): 0.041% | Related substances Others Total ([7]; day 10): 0.570%
